According to article PMC10060354, “Discovery of a small molecule ligand of FRS2 that inhibits invasion and tumor growth” (Cellular Oncology, 2022):
Converted amounts (≈) assume the structure as drawn. Read-outs that look alike come from different tables or passages of the source.

What was measured:
[1] = system: HepG2 human hepatocellular carcinoma cells; experiment: Cell viability (cytotoxicity, MTT) using HepG2; assay type: cell-based; settings: for MEC: 72h, 3 replicas, NR = No response (Summary sheet); for MTT (MEC) Minimum effective concentration: 72 h, summary sheet
Method: (§1) HepG2 human hepatocellular carcinoma cells were plated on 96-well tissue culture polystyrene plates for 24 h prior to dosing of the cells. The shortlisted hits were diluted in DMSO and serial dilutions are made 1% DMSO in growth media. Compounds at 8 concentrations in triplicate was then incubated for 72 h. Appropriate blanks and controls were run alongside the assay. One h prior to the end of the incubation period, the cells were loaded with MTT [yellow; 3-(4,5-dimethyl-2-thiazolyl)-2,5-diphenyl-2H-tetrazolium bromide], the plates were dried and re-solubilized using DMSO. The plates were then scanned at 570 nm using a plate reader.
(§2) The minimum effective concentration was determined from the lowest concentration whose mean value exceeds the significance level, provided either a clear dose–response relationship was observed, or at least two consecutive concentration points were above the significance level.

[2] = Cell viability (cytotoxicity, MTT) using HepG2; assay type: cell-based, human; settings: human, HepG2 cells
Method: as §1, §2

[3] = Microsomal metabolic stability; assay type: in vitro ADME; settings: human, pooled liver microsomes; for half-life at 1 µM: pH 7.4, liver microsomes, read-out: t1/2; for microsomal CLint at 1 µM: pH 7.4, read-out: Metabolic stability - Intrinsic clearance (CI)
Method: Pooled liver microsomes were purchased from Xenotech (H0500) and were stored according to manufacturer’s instructions prior to use. […] A minus co-factor control incubation was included for each compound tested where 0.1 M phosphate buffer pH 7.4 was added instead of NADPH. Two control compounds were included with each species. All incubations were performed singularly for each shortlisted hit. Each compound was incubated for 0, 5, 15, 30 and 45 min. The minus co-factor was incubated for 45 min only. The reactions were stopped by transferring incubate into acetonitrile at the appropriate time points in a 1:3 ratio. The termination plates were centrifuged at 3000 rpm for 20 min at 4 °C to precipitate the protein. Following protein precipitation, the supernatant were combined in cassette of up to 4 compounds, internal standard for MS analysis was added and samples were analyzed using LC–MS/MS. From a plot of In peak area ratio (compound peak area/internal standard peak area) against time, the gradient of the lines were determined. Subsequently, half-life and intrinsic clearance were calculated using the following equations. Eliminationrateconstant(k)=(-gradient)Half-life(t1/2)(min)=0.693/kIntrinsicclearance(CLint)(μl/min/mgprotein)=Vx0.693/t1/2 where V = Incubation volume (µl) / Microsomal protein (mg)

[4] = CaCo-2 permeability (bi-directional); settings: human
Method: Caco-2 cells obtained from the ATCC were used between passage numbers 40—60. Cells were seeded onto Millipore Multiscreen Transwell plates at 1 × 10^5 cells/cm^2. The cells were cultured in DMEM and media was changed every two or three days. On day 20, the permeability study was performed. […] Cells were then incubated with HBSS at the desired pH in both apical and basolateral compartments for 40 min to stabilize physiological parameters.
The fluorescent integrity marker lucifer yellow was also included in the dosing solution. Analytical standards were prepared from test compound DMSO dilutions and transferred to buffer, maintaining a 1% v/v DMSO concentration.
For assessment of A-B permeability, HBSS was removed from the apical compartment and replaced with test compound dosing solution. The apical compartment insert was then placed into a companion plate containing fresh buffer (containing 1% v/v DMSO). For assessment of B-A permeability, HBSS was removed from the companion plate and replaced with test compound dosing solution. Fresh buffer (containing 1% v/v DMSO) was added to the apical compartment insert, which was then placed into the companion plate.
Compound permeability was assessed in duplicate. Compounds of known permeability characteristics were run as controls on each assay plate.
Test and control compounds were quantified by LC–MS/MS cassette analysis using a 7-point calibration with appropriate dilution of the samples. The starting concentration (C0) was determined from the dosing solution and the experimental recovery calculated from C0 and both apical and basolateral compartment concentrations. The integrity of the monolayer throughout the experiment was checked by monitoring lucifer yellow permeation using fluorimetric analysis.
The permeability coefficient (Papp) for each compound was calculated from the following equation: Papp=dQ/dtC0×A where dQ/dt was the rate of permeation of the drug across the cells, C0 was the donor compartment concentration at time zero and A was the area of the cell monolayer. C0 was obtained from analysis of the dosing solution.
Efflux ratio (ER) was calculated from mean A-B and B-A data. This was derived from: ER=Papp(B-A)Papp(A-B)

[5] = Semi-thermodynamic solubility; assay type: physicochemical; settings: for solubility: Room Temp, Overnight, LC-MSMS; for solubility thermodynamic: overnight; for solubility thermodynamic / Solubility (class in words): summary sheet
Method: In vitro ADME-T assays were performed by Cyprotex (Cyprotex Discovery, Cheshire, UK). […] The solution was agitated at ambient temperature overnight. The solutions were then centrifuged for 30 min at 3000 rpm at RT. The supernatant was removed and centrifuged for a further 30 min under the same conditions. An aliquot of the resulting supernatant was diluted in 50% methanol in water (containing an internal standard for MS analysis) prior to analysis by LC–MS/MS. […] These stocks were diluted in 50% methanol in water (containing an internal standard for MS analysis) prior to analysis by LC–MS/MS. The solubility of the shortlisted hits was calculated from a linear or quadratic fit of the standard curve.

[6] = system: DAOY cells; experiment: Spheroid invasion assay (SIA), bFGF-induced collagen I invasion; assay type: cell-based, human; settings: for functional activity in SIA (result in words): DAOY, bFGF-induced, 1, 5 and 10 µM
Method: 1000—2500 cells/well in 100 μl were seeded in 96 well Corning® Spheroid microplate (CLS4520, Sigma-Aldrich) or in cell-repellent 96 well microplate (650,790, Greiner Bio-one). SIA and analysis was performed as described before. In brief: After spheroid formation (24 – 72 h after seeding), 70 µl medium was removed and replaced with the collagen mixture (2.5 mg/ml Pure Col Collagen I (Advanced Biomatrix)), DMEM 1x (from 10 × stock, Sigma, D2429) and 0.4% Sodium bicarbonate (Sigma, S8761)), resulting in a final collagen concentration of 1.75 mg/ml. Embedded spheroids were stimulated with bFGF (100 ng/ml if not otherwise stated), HGF (30 ng /ml) or EGF (20 ng/ml) and distance of invaded cells quantified 24 – 48 h after embedding. Compounds and BGJ398 were added in Dimethylsulfoxid (DMSO) and corresponding DMSO concentrations were used in control samples.

[7] = 72h, 3 replicas, NR = No response (Summary sheet), read-out: AC50
[8] = 72 h, summary sheet, read-out: MTT (AC50) Conc at which 50% of maximum efficacy is reached
[9] = Caco-2, Mean Papp A-B, Caco-2, summary sheet
[10] = Caco-2, Mean Papp B-A, Caco-2, summary sheet
[11] = Caco-2, pH 7.4, Mean % Recovery A2B, HBSS/HBSS, pH 7.4/7.4
[12] = Caco-2, pH 7.4, Mean % Recovery B2A, HBSS/HBSS, pH 7.4/7.4
[13] = Caco-2, pH 7.4, Mean Papp A2B, HBSS/HBSS, pH 7.4/7.4
[14] = Caco-2, pH 7.4, Mean Papp B2A, HBSS/HBSS, pH 7.4/7.4
[15] = Caco-2, pH 7.4, Papp A2B Replicate 1, HBSS/HBSS, pH 7.4/7.4
[16] = Caco-2, pH 7.4, Papp B2A Replicate 1, HBSS/HBSS, pH 7.4/7.4
[17] = Caco-2, pH 7.4, Papp B2A Replicate 2, HBSS/HBSS, pH 7.4/7.4
[18] = PBS, aqueous buffer, thermodynamic from solid, read-out: Mean Solubility
[19] = PBS, aqueous buffer, thermodynamic from solid, read-out: Solubility Replicate 1
[20] = PBS, aqueous buffer, thermodynamic from solid, read-out: Solubility Replicate 3
[21] = PBS, aqueous buffer, thermodynamic from solid, read-out: Solubility Replicate 4
[22] = aqueous buffer, thermodynamic from solid, PBS
[23] = PBS, aqueous buffer, thermodynamic from solid, read-out: Solubility Replicate 2

SMILES	MEC [1] [µM]	AC50 at 72 h [2, 7] [µM]	MTT (MEC) Minimum effective concentration [1] [µM]	AC50 at 72 h [2, 8] [µM]	half-life at 1 µM [3] [min]	microsomal CLint at 1 µM [3] [µL/min/mg]	efflux ratio at 120 min, 10 μM ([4]; Caco-2)	Papp A→B at 120 min, 10 μM [4, 9] [×10⁻⁶ cm/s]	Papp B→A at 120 min, 10 μM [4, 10] [×10⁻⁶ cm/s]	efflux ratio at 120 min, 10 μM ([4]; Caco-2, pH 7.4)	recovery at 120 min, 10 µM [4, 11] [%]	recovery at 120 min, 10 µM [4, 12] [%]	Papp A→B at 120 min, 10 μM [4, 13] [×10⁻⁶ cm/s]	Papp B→A at 120 min, 10 μM [4, 14] [×10⁻⁶ cm/s]	Papp A→B at 120 min, 10 μM [4, 15] [×10⁻⁶ cm/s]	Papp B→A at 120 min, 10 μM [4, 16] [×10⁻⁶ cm/s]	solubility [5, 18] [µM]	solubility [5, 19] [µM]	solubility [5, 20] [µM]	solubility [5, 21] [µM]	further results
CN(C)CCCN1c2ccccc2Sc2ccc(Cl)cc21 [Chlorpromazine, reference compound]	10.7	12.9	–	–	–	–	–	–	–	–	–	–	–	–	–	–	–	–	–	–	–
Oc1cc(Cl)cc2c1NC(c1ccccc1)C1CC=CC21 (stereo not drawn) [Compound 11]	14.2	–	14.2	19.6	2.83	490	36.9	0.3	11.1	36.9	30	8.82	0.3	11.1	0.3	11.5	2.18 (≈ 0.649 µg/mL)	1.95 (≈ 0.581 µg/mL)	2.79 (≈ 0.831 µg/mL)	1.79 (≈ 0.533 µg/mL)	Papp B→A at 120 min, 10 μM [4, 17]: 10.6 ×10⁻⁶ cm/s; solubility thermodynamic [5, 22]: 2.18 µM (≈ 0.649 µg/mL); Solubility (class in words) [5]: Sligthly; functional activity in SIA (result in words) [6]: reduced effect compared to its parent compound 3.18 at all concentrations
CC1(C)Cc2cccc(OCC(=O)Nc3nc4ccccc4s3)c2O1 [Compound E25]	42.6	–	42.6	58.7	0.552	2510	4	1.11	4.46	4	6.59	50.6	1.11	4.46	1.12	5.88	1.25 (≈ 0.443 µg/mL)	1.26 (≈ 0.447 µg/mL)	1.21 (≈ 0.429 µg/mL)	1.4 (≈ 0.496 µg/mL)	Papp A→B at 120 min, 10 μM ([4]; Caco-2, pH 7.4, Papp A2B Replicate 2, HBSS/HBSS, pH 7.4/7.4): 1.11 ×10⁻⁶ cm/s; Papp B→A at 120 min, 10 μM [4, 17]: 3.04 ×10⁻⁶ cm/s; solubility [5, 23]: 1.12 µM (≈ 0.397 µg/mL); solubility thermodynamic [5, 22]: 1.25 µM (≈ 0.443 µg/mL); Solubility (class in words) [5]: Sligthly; functional activity in SIA (result in words) [6]: comparable inhibition of invasion; EC50 ([6]; Homo sapiens, Daoy, DAOY cells, n = 3 technical replicas, read-out: EC50 for the inhibition of bFGF-induced collagen I invasion): 7.51 µM
N#CC(C#N)=NNc1cccc(Cl)c1 [carbonyl cyanide 3-chlorophenylhydrazone, reference compound]	4.22	6.66	–	–	–	–	–	–	–	–	–	–	–	–	–	–	–	–	–	–	–
COC(=O)C1=C(C)NC(C)=C(C(=O)OCCN(C)Cc2ccccc2)C1c1cccc([N+](=O)[O-])c1 (stereo not drawn) [nicardipine, reference compound]	–	–	–	–	–	–	–	–	–	–	–	–	–	–	–	–	29.8 (≈ 14.3 µg/mL)	34.3 (≈ 16.4 µg/mL)	29.6 (≈ 14.2 µg/mL)	31.2 (≈ 15 µg/mL)	solubility [5, 23]: 24.2 µM (≈ 11.6 µg/mL)
CC(=O)CC(c1ccccc1)c1c(O)c2ccccc2oc1=O (stereo not drawn) [warfarin, reference compound]	–	–	–	–	–	–	–	–	–	–	–	–	–	–	–	–	–	> 100	–	–	solubility ([5]; read-out: Mean Solubility): >100 µM; solubility ([5]; read-out: Solubility Replicate 2): >100 µM; solubility ([5]; read-out: Solubility Replicate 3): >100 µM; solubility ([5]; read-out: Solubility Replicate 4): >100 µM
